The values that follow come from patent US20130202659A1, “POLYMER-AGENT CONJUGATES, PARTICLES, COMPOSITIONS, AND RELATED METHODS OF USE” (CERULEAN PHARMA INC., priority 2012, published 2013).

A short description of data set [1]: Body weight changes in A2780 tumor-bearing mice (Example 42). It is filed as in vivo, mouse. Particulars: Day 36. As for the experimental part: The stock solution was diluted further with PBS to 1.5 mg/mL (for a dose of 15 mg/kg at 10 mL/kg and 30 mg/kg at 20 mL/kg). This formulation was made within 30 minutes of administration to mice.
The treatments were administered 2 times, on Day 8 and Day 15 (weekly×2 injections) for n=8 mice per group. […] On Day 50, the study was ended for all remaining mice. When removed from the study, mice were euthanized by CO2 inhalation.

For data set [2], the system named is B16.F10 tumor. The data set can be described thus: Efficacy in B16.F10 murine melanoma model (Example 43). Type of data set: in vivo, mouse. The protocol:
7) PEGylated docetaxel-5050 PLGA-β-acetyl nanoparticles (mPEG(5k)-PLGA at 40 wt %) administered at a dose of 15 mg/kg. Refer to table for detailed description of formulations.
Tumor volume was calculated with the following equation: (width×width×length)/2 mm^3.

The subject of the next data set is HCT-116 tumor. In words: In vivo efficacy, HCT-116 colon xenograft model (Example 44). To be noted: 30 mg/kg IV weekly×2. Set-up: species or system human (in CD-1 nude mice). As for the experimental part:
HCT-116 cells were grown in culture to confluency in McCoy's 5a medium containing 10% FBS and 1% penicillin/streptomycin and then resuspended in McCoy's 5a (passage 4). This suspension of HCT-116 cells (density=3.7×10^6 cells/mL) was implanted subcutaneously above the right hind leg of male CD-1 nude mice on day 1.

Another data set deals with SK-OV-3 tumor. The data set can be described thus: In vivo efficacy, SK-OV-3 ovarian human xenograft model (Example 45). Set-up: species or system human (in CD-1 nude mice). As for the experimental part: SK-OV-3 cells were grown in culture to confluency in RPMI medium containing 10% FBS and 1% penicillin/streptomycin and then resuspended in RPMI (passage 4) for implantation into mice. This suspension of SK-OV-3 cells (density=30×10^6 cells/mL) was implanted into the mammary gland of female CD-1 nude mice on Day 1. […]
A general note: A xenograft is tissue or cells of one species grown in another, often human tumour cells in immunodeficient mice.

Data set [3] can be described thus: Tolerability in normal male C57BL/6 non-tumor-bearing mice (Example 47). It is filed as in vivo, mouse. The protocol:
Treatments were administered intravenously on a q7d×2 schedule, i.e., two treatments seven days apart (the first treatment was on Day one). The study ended on Day 14, six days after the 2nd treatment. Blood was collected for complete blood count (CBC) and serum chemistry. Leg muscles were collected so that nerve degeneration could be assessed from the sciatic nerve.

A short description of data set [4]: Tolerability in ADR-RES tumor-bearing mice (Example 59). Type of data set: in vivo, mouse.
Experimental: The treatments were administered IV into the tail vein at a dose volume of 10 and 20 mL/kg for 30 and 60 mg/kg respectively, beginning on post-implantation day 47, when the mean tumor volume was ca. 150 mm^3. Body weight and tumor volume were measured for three times a week during the dosing period and twice a week thereafter. In addition, animals were also monitored for any morbidity and adverse effects for three times a week during the dosing period and twice a week thereafter.
Tumor volume was calculated with (width×width×length)/2 mm^3 formula. […] Tumor growth inhibition (TGI) is represented as % and calculated as (1−(treated tumor volume/control tumor volume))×100 when the control group mean tumor volume reached ≧1000 mm^3. Tumor growth delay (TGD) is calculated by subtracting the day when the vehicle treated group reached the maximum tumor size 1000 mm^3 from the day when the treatment group tumor size reached 1000 mm^3.
For a further data set, the system named is H1299 tumor. The data set can be described thus: Efficacy in non-small cell lung carcinoma model H1299 (Example 60). To be noted: large tumor group, 30 mg/kg. Type of data set: in vivo, nu/nu mice.
The nature of data set [5]: Tolerability in H1299 tumor-bearing mice (Example 60). It is filed as in vivo, mouse.
Experimental: The treatments were administered IV into the tail vein at a dose volume of 10 and 20 mL/kg for 30 and 60 mg/kg respectively, beginning on post-implantation day 30 when the mean tumor volume was ca. 170 mm^3 (small tumor group), and on day 37 when the mean tumor volume was ca. 440 mm^3 (large tumor group). Body weight and tumor volume were measured for three times a week during the dosing period and twice a week thereafter. In addition, animals were also monitored for any morbidity and adverse effects for three times a week during the dosing period and twice a week thereafter.
Tumor volume was calculated with (width×width×length)/2 mm^3 formula. Efficacy was determined by tumor growth inhibition (TGI), tumor growth delay (TGD) and survival. Tumor growth inhibition (TGI) is represented as % and calculated as (1−(treated tumor volume/control tumor volume))×100 when the control group mean tumor volume reached ≧1000 mm^3. Tumor growth delay (TGD) is calculated by subtracting the day when the vehicle treated group reached the maximum tumor size 1000 mm^3 from the day when the treatment group tumor size reached 1000 mm^3.
A short description of data set [6]: Tolerability in mouse melanoma model B16.F10 (Example 61). It is filed as in vivo. Particulars: 15 mg/kg 1/wk×3.
Experimental: The treatments were administered IV into the tail vein at a dose volume of 10 ml/kg, beginning on post-implantation day 5, when the mean tumor volume was ca. 60 mm^3. Animals were monitored for any morbidity and adverse effects three times a week. In addition, body weight and tumor volume were also measured three times a week.
A further data set has as its system murine melanoma tumor. In words: Efficacy and survival in aggressive murine melanoma model at MTD (Example 92). It is filed as in vivo, mouse. To be noted: dosed at respective MTD. The protocol:
Thus, the sustained release properties of a particle according to exemplary particle 1 supports less frequent dosing of patients. Methods: Tumor-bearing mice were injected with a particle according to exemplary particle 1 or docetaxel at their respective MTD. See, for example, FIGS. 6a and 6b.

In the next data set the test system is MDA-MB-435 tumor. The data set can be described thus: MDA-MB-435 breast xenograft model, delayed treatment (Example 93). To be noted: mouse, in vivo. From the text: See, for example, FIG. 7.
The conditions of data set [7]: mouse, in vivo, 17 day post-implantation.
Experimental: The stock solution was diluted further with PBS to 0.6, 1.5, 3, 4.5 and 6 mg/mL (for a corresponding dose of 6, 15, 30, 45 and 60 mg/kg) so that all the groups received the same amount of ethanol, polysorbate 80, water and PBS. […] 5) PEGylated O-acetyl-5050-PLGA nanoparticle vehicle at the highest concentration of 6 mg/mL.
The treatments were administered IV into the tail vein at a dose volume of 10 mL/kg, beginning on post-implantation Day 5, when the mean tumor volume was 55 mm^3. The treatments were administered 4 times, on Days 5, 8, 12 and 15 (biweekly×4 injections). On Day 17 post-tumor implantation, mice were euthanized by CO2 inhalation according to the procedure guideline. Blood was collected by cardiac puncture and put into ethylenediaminetetraacetic acid (EDTA) or serum separation blood collection tubes. Whole blood was analyzed on the day of collection for CBC analyses. After the blood clotted and was centrifuged, serum was frozen immediately on dry ice for serum chemistry analyses.
Tolerability was determined by changes in body weight, expressed as a percent of the initial body weight on post-implantation Day 5. […] Other indices of toxicity, complete blood count (CBC) and serum chemistry were determined from blood collected from animals that were euthanized on Day 17 by CO2 inhalation, according to the procedure guideline.
For data set [8] the following is noted: weekly schedule, 3 injections; cited from earlier work.
Data set [9] concerns B16.F10 tumor. The data set can be described thus: In vivo efficacy, B16.F10 mouse model of melanoma (Example 39). The protocol: The treatments were administered on days 5, 8, and 12 (biweekly×3 injections) post tumor implantation. Health status of the animals was monitored and tumor size was measured three times a week. […] Tumors from each animal were dissected and tumor size was measured. Tumor volume was calculated using the formula: (width×width×length)/2 mm^3.

In another data set the test system is B 16.F10 cells. In words: CellTiter-Glo Luminescent Cell Viability Assay, cytotoxic effect of nanoparticles. Type of data set: cell-based, mouse. Particulars: 24, 48 and 72 hours. As for the experimental part:
B 16.F10 cells, grown to 85-90% confluency in 150 cm^2 flasks (passage<30), were resuspended in media (MEM-alpha, 10% HI-FBS, lx antibiotic-antimycotic) and added to 96-well opaque-clear bottom plates at a concentration of 1500 cells/well in 200 μL/well. The cells were incubated at 37° C. with 5% CO2 for 24 hours. The following day, serial dilutions of 2× concentrated particles and 2× concentrated free drug were made in 12-well reservoirs with media to specified concentrations. The media in the plates was replaced with 100 μL of fresh media and 100 μL of the corresponding serially diluted drug. Three sets of plates were prepared with duplicate treatments. Following 24, 48 and 72 hours of incubation at 37° C. with 5% CO2, the media in the plates was replaced with 100 μL of fresh media and 100 μL of CTG solution, and then incubated for 5 minutes on a plate shaker at room temperature set to 450 rpm and allowed to rest for 15 minutes. Viable cells were measured by luminescence using a microtiter plate reader. The data was plotted as % viability vs. concentration and standardized to untreated cells.
For orientation: ATP-based viability assays read luminescence as a measure of living cells.

[10] abbreviates: large tumor group, 30 mg/kg 1/wk×2.
Setting [11] is: large tumor group, 60 mg/kg 1/wk×2.
The mark [12] stands for this setting: small tumor group, 30 mg/kg 1/wk×2.
The mark [13] stands for this setting: small tumor group, 60 mg/kg 1/wk×2.

Turning to `CC(=O)O[C@@]12CO[C@@H]1C[C@H](O)[C@@]1(C)C(=O)[C@H](O)C3=C(C)[C@@H](OC(=O)[C@H](O)[C@@H](NC(=O)OC(C)(C)C)c4ccccc4)C[C@@](O)([C@@H](OC(=O)c4ccccc4)[C@H]21)C3(C)C` [Free docetaxel, docetaxel], the “body weight, % of initial” value in [1] (15 mg/kg) is 113±11%; in data set [1] (30 mg/kg), 105±9%. Also, the “tumor growth delay (TGD)” value in the data set with B16.F10 tumor [2] (q3dq4dx3, 15 mg/kg) is 12 days; in the data set with B16.F10 tumor [2] (q7dx3, 30 mg/kg), 17 days; with SK-OV-3 tumor (15 mg/kg weekly×2), 18 days; with SK-OV-3 tumor (30 mg/kg weekly×2), 42 days. Besides, the “day tumor volume end point reached” value in the data set on B16.F10 tumor [2] (q14dx2, 60 mg/kg) stood at 29 days. Moreover, the “tumor growth inhibition (TGI)” value with B16.F10 tumor [2] (q14dx2, 60 mg/kg) turned out to be 71%; in the data set with HCT-116 tumor, 88%. Also, in the data set on HCT-116 tumor (end point 1000 mm^3), the TGD was found to be 22 days. The Ataxia in [3] (30 mg/kg q7d×2) came to 0%; in data set [3] (45 mg/kg q7d×2) it was 20%; in data set [3] (60 mg/kg q7d×2), 100%. Further, the Lymphocyte mean worked out at 4350 cells/A in data set [3] (30 mg/kg q7d×2, Day 14); 6780 cells/A in [3] (45 mg/kg q7d×2, Day 14); 5590 cells/A in [3] (60 mg/kg q7d×2, Day 14). Further, the Neutrophil mean in data set [3] (30 mg/kg q7d×2, Day 14) came out at 556 cells/A; in data set [3] (45 mg/kg q7d×2, Day 14), 752 cells/A; in [3] (60 mg/kg q7d×2, Day 14) it was 470 cells/A. Moreover, in data set [3] (60 mg/kg q7d×2), the “weight lost after the second treatment, by the end of the study” value is given as 19%. In addition, the “effect on serum chemistry” value in [3] (doses up to 60 mg/kg) is recorded as “did not affect any serum chemistry parameter”. Also, the “Maximum body weight loss” value in data set [4] (30 mg/kg 1/biwk×3) is 9%; in data set [4] (30 mg/kg 1/wk×2) it was 6%; in data set [4] (60 mg/kg 1/biwk×3), 21%; in [4] (60 mg/kg 1/wk×2), 23%; in [5] (setting [10]), 19%; in data set [5] (setting [11]), “significant body weight loss”. In addition, the “Maximum body weight loss” value in data set [5] (setting [12]) is reported as 18%; in [5] (setting [13]), “significant body weight loss”; in [6], 2%. Besides, the hind limb paralysis entry is reported as “did not cause any significant body weight loss (<10%) or hind limb paralysis” in [4] (30 mg/kg 1/biwk×3); “did not cause any significant body weight loss (<10%) or hind limb paralysis” in data set [4] (30 mg/kg 1/wk×2); “severe hind limb paralysis” in data set [4] (60 mg/kg 1/biwk×3); “hind limb paralysis after the 2nd injection followed by recovery” in [4] (60 mg/kg 1/wk×2); “did not cause any significant body weight loss or hind limb paralysis” in data set [5] (setting [10]); “severe hind limb paralysis” in data set [5] (setting [11]). In addition, the hind limb paralysis result in [5] (setting [12]) is “did not cause any significant body weight loss or hind limb paralysis”; in [5] (setting [13]) it was “severe hind limb paralysis”. The tumor shrinkage result in the data set on H1299 tumor is reported as “no tumor shrinkage”. In addition, in the data set on murine melanoma tumor, the “tumor growth with every other week dosing” value was “not sufficient to suppress tumor growth”. Moreover, the “effect on tumors allowed to grow to 500 mm^3 (delayed treatment)” value with MDA-MB-435 tumor is reported as “unable to suppress tumor growth”. Besides, in data set [7], the “dose up to which no serum chemistry parameter was affected” value was determined as 30 mg/kg. Also, the “known maximum tolerated dose (MTD)” value in data set [8] is listed as 30 mg/kg.

Take `CC(=O)O[C@H]1C(=O)[C@@]2(C)[C@H]([C@H](OC(=O)c3ccccc3)[C@]3(O)C[C@H](OC(=O)[C@H](O)[C@@H](NC(=O)c4ccccc4)c4ccccc4)C(C)=C1C3(C)C)[C@]1(OC(C)=O)CO[C@@H]1C[C@@H]2O` [Free paclitaxel, paclitaxel]: the “Day-17 TGI” value in the data set with B16.F10 tumor [9] (6 mg/kg IV days 5, 8, 12) stood at 57%; with B16.F10 tumor [9] (15 mg/kg IV days 5, 8, 12), 83%.

Regarding `OC[C@H]1O[C@@](CO)(O[C@H]2O[C@H](CO)[C@@H](O)[C@H](O)[C@H]2O)[C@@H](O)[C@@H]1O` [Sucrose, sucrose], the “Recon. Solution Appearance” value (nanoparticles A, sucrose cycle, lyoprotectant 100 mg/mL, polymer 31.25 mg/mL, 3.2:1) is given as “cloudy”.

For the compound `OC[C@H]1O[C@@H]2O[C@H]3[C@H](O)[C@@H](O)[C@@H](O[C@H]4[C@H](O)[C@@H](O)[C@@H](O[C@H]5[C@H](O)[C@@H](O)[C@@H](O[C@H]6[C@H](O)[C@@H](O)[C@@H](O[C@H]7[C@H](O)[C@@H](O)[C@@H](O[C@H]8[C@H](O)[C@@H](O)[C@@H](O[C@H]1[C@H](O)[C@H]2O)O[C@@H]8CO)O[C@@H]7CO)O[C@@H]6CO)O[C@@H]5CO)O[C@@H]4CO)O[C@@H]3CO` [β-CD, β-cyclodextrin], where the note is “40 mg/mL”, the “solubility of the cyclodextrin in the formulation” value is given as “Beta-CD is not soluble at this”.

“bis(docetaxel) glutamate-5050 PLGA-O-acetyl”: the “growth inhibition of B 16.F10 cells” value in the data set on B 16.F10 cells was “inhibited the growth of B 16.F10 cells in a dose and time dependent manner”.

As to docetaxel-5050 PLGA-O-acetyl, the “growth inhibition of B 16.F10 cells” value in the data set on B 16.F10 cells is “inhibited the growth of B 16.F10 cells in a dose and time dependent manner”.

As for doxorubicin 5050 PLGA amide, the “growth inhibition of B 16.F10 cells” value in the data set with B 16.F10 cells is “inhibited the growth of B 16.F10 cells in a dose and time dependent manner”.

Regarding paclitaxel-5050 PLGA-O-acetyl, in the data set on B 16.F10 cells, the “growth inhibition of B 16.F10 cells” value was “inhibited the growth of B 16.F10 cells in a dose and time dependent manner”.
